Key:
[1] = biological target: Histamine H1 receptor (Homo sapiens) (UniProt P35367); conditions: U-373MG ATCC
Description: Histamine H1 receptor antagonistic activity in U373MG human glioblastoma cells using fluorescence-labeled H1 as radioligand in Ca+2 assay

[2] = biological target: Histamine H1 receptor (Cavia porcellus, UniProt P31389); experiment: Histamine H1 receptor antagonistic activity in guinea pig ileum […]; type: functional, tissue-based; conditions: read-out: pA2 (converted)
Sequence of Histamine H1 receptor (P31389 whole entry): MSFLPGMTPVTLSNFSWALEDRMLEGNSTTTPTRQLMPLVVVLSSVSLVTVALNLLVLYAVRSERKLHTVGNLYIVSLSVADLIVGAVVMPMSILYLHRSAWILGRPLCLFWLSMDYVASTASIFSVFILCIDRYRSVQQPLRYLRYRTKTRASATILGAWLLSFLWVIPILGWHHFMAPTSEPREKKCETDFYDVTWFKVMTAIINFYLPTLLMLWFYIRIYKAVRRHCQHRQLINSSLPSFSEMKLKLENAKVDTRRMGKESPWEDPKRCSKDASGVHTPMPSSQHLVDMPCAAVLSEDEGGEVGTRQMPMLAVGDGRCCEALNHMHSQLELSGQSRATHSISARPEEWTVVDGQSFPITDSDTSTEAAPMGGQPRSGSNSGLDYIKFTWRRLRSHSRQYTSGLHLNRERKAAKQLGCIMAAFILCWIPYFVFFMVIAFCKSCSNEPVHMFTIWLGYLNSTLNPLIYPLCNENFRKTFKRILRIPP

Sequence of Histamine H1 receptor (Homo sapiens) (P35367 whole entry): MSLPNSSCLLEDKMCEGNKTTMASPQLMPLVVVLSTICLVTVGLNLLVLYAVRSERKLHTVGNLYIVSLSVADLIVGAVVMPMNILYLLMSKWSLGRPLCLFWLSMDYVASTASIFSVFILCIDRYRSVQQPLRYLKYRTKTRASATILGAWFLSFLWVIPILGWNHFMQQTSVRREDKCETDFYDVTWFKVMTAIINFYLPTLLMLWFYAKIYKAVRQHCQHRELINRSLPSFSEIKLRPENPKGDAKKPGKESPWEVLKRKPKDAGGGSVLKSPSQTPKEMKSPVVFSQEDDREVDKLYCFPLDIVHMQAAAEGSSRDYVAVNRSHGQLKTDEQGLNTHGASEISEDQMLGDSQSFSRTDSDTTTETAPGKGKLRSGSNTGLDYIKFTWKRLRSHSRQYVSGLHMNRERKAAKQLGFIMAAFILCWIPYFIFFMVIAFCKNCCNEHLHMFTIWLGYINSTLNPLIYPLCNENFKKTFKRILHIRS

| SMILES | pKB [1] | Kb [2] [nM] |
| --- | --- | --- |
| COc1ccc(CN(CCN(C)CCCCNC(=O)c2ccc(-c3c4ccc(=O)cc-4oc4cc(O)ccc34)c(C(=O)O)c2)c2ccccn2)cc1 | 8.47 | 4.47 |
| COc1ccc(CN(CCN(C)CCCCCCCCNC(=O)c2ccc(C(=O)O)c(-c3c4ccc(=O)cc-4oc4cc(O)ccc34)c2)c2ccccn2)cc1 | 8.53 | 5.01 |
| COc1ccc(CN(CCN(C)CCCCCCNC(=O)c2ccc(-c3c4ccc(=[N+](C)C)cc-4oc4cc(N(C)C)ccc34)c(C(=O)[O-])c2)c2ccccn2)cc1 | 7.54 | 33.1 |
| COc1ccc(CN(CCN(C)CCCCCCCCNC(=O)c2ccc(-c3c4ccc(=O)cc-4oc4cc(O)ccc34)c(C(=O)O)c2)c2ccccn2)cc1 | 8.94 | 3.39 |
| COc1ccc(CN(CCN(C)CCNC(=O)c2ccc(C(=O)O)c(-c3c4ccc(=O)cc-4oc4cc(O)ccc34)c2)c2ccccn2)cc1 | 6.93 | 145 |
| COc1ccc(CN(CCN(C)CCNC(=O)c2ccc(-c3c4ccc(=O)cc-4oc4cc(O)ccc34)c(C(=O)O)c2)c2ccccn2)cc1 | 7.21 | 69.2 |
| COc1ccc(CN(CCN(C)CCCCNC(=O)c2ccc(C(=O)O)c(-c3c4ccc(=O)cc-4oc4cc(O)ccc34)c2)c2ccccn2)cc1 | 7.81 | 31.6 |
| COc1ccc(CN(CCN(C)CCCCCCNC(=O)c2ccc(-c3c4ccc5cc(O)ccc5c4oc4c3ccc3cc(=O)ccc34)c(C(=O)O)c2)c2ccccn2)cc1 | 7.18 | 36.3 |

Second part, the compound after the results:

| pKB [1] | Kb [2] [nM] | SMILES |
| --- | --- | --- |
| 8.12 | 6.61 | CNCCN(Cc1ccc(OC)cc1)c1ccccn1 [2-[(2-METHYLAMINOETHYL)(P-METHOXYBENZYL)AMINO]PYRIDINE] |
| 8.06 | 9.77 | COc1ccc(CN(CCN(C)CCCCCCCCN)c2ccccn2)cc1 |
| 8.03 | 12.9 | COc1ccc(CN(CCN(C)CCCCCCN)c2ccccn2)cc1 |
| 8.4 | 26.3 | COc1ccc(CN(CCN(C)CCCCCCNC(=O)c2ccc(C(=O)O)c(-c3c4ccc(=O)cc-4oc4cc(O)ccc34)c2)c2ccccn2)cc1 |
| 7.68 | 26.3 | COc1ccc(CN(CCN(C)CCCCCCNC(=O)c2ccc(-c3c4ccc(=N)cc-4oc4cc(N)ccc34)c(C(=O)O)c2)c2ccccn2)cc1 |
| 9.05 | 1.95 | COc1ccc(CN(CCN(C)CCCCCCNC(=O)CCCCCNc2ccc([N+](=O)[O-])c3nonc23)c2ccccn2)cc1 |
| 7.84 | 13.2 | COc1ccc(CN(CCN(C)CCN)c2ccccn2)cc1 |
| 7.76 | 17.8 | COc1ccc(CN(CCN(C)CCCCCCNS(=O)(=O)c2cccc3c(N(C)C)cccc23)c2ccccn2)cc1 |
| 8.12 |  | COc1ccc(CN(CCN(C)CCNc2ccc([N+](=O)[O-])c3nonc23)c2ccccn2)cc1 |
| 7.61 | 22.4 | COc1ccc(CN(CCN(C)CCCCN)c2ccccn2)cc1 |
|  | 4.68 | COc1ccc(CN(CCN(C)CCNc2ccc([N+](=O)[O-])c3n[o+][n-]c23)c2ccccn2)cc1 |
| 8.17 | 21.4 | COc1ccc(CN(CCN(C)CCCCCCNC(=O)c2ccc(-c3c4ccc(=O)cc-4oc4cc(O)ccc34)c(C(=O)O)c2)c2ccccn2)cc1 |

Source: ChEMBL document CHEMBL1136672, “Synthesis and pharmacological activity of fluorescent histamine H1 receptor antagonists related to mepyramine” (Bioorg Med Chem Lett, 2003)
